Test results as given in US5541116A, “Method for the stabilization of endogenous, physiologically active peptides” (B.R.A.H.M.S. Diagnostica GmbH, priority 1991, dated 1996).
Where two headings read alike, the source gives them in different places. Where a SMILES comes first, the peptide text is derived from it. [ ]: non-standard residue; d: D form. The star is where a group is joined. Sta = CC(C)C[C@H](N)[C@@H](O)CC(=O)O; Isovaleryl = CC(C)CC(=O)*

Assays:
[1] = system: endogenous proteases which are active in human serum and plasma; assay: Hydrolysis of 125I-ACTH 1-39 in human serum or EDTA plasma with protease inhibitors (RP-HPLC, radioactivity detection); type: biochemical
[2] = system: endogenous proteases which are active in human serum and plasma; assay: Variation of inhibitor concentrations to find the minimum needed for adequate protection of the peptides; type: biochemical; settings: in the presence of the other inhibitors; serum or plasma sample
From the text: To determine the concentrations of the individual inhibitors which are required for adequate protection of the peptides, in the presence of the other inhibitors, the concentrations were repeatedly varied.

[3] = 125I-ACTH 1-39, inhibitor 100 μM, EDTA plasma, 22° C., 25 h
[4] = 125I-ACTH 1-39, inhibitor 100 μM, serum, 22° C., 18 h
[5] = 125I-ACTH 1-39, inhibitor 1 mM, EDTA plasma, 22° C., 25 h
[6] = 125I-ACTH 1-39, inhibitor 1 mM, serum, 22° C., 18 h

CC(C)C[C@@H](N)[C@H](O)C(=O)N[C@H](C(=O)N[C@H](C(=O)N[C@@H](CC(=O)O)C(=O)O)C(C)C)C(C)C [Amastatin]
% of hydrolysis rate of the control, in EDTA plasma [1, 3]: 3%
% of hydrolysis rate of the control, in serum [1, 4]: 17%

N=C(N)c1ccccc1 [Benzamidine]
% of hydrolysis rate of the control, in EDTA plasma [1, 5]: 80%
% of hydrolysis rate of the control, in serum [1, 6]: 84%

CC(C)C[C@H](NC(=O)[C@@H](O)[C@H](N)Cc1ccccc1)C(=O)O [Bestatin]
% of hydrolysis rate of the control, in EDTA plasma [1, 5]: 27%
% of hydrolysis rate of the control, in serum [1, 6]: 44%

CC(C)C[C@H](NC(=O)N[C@H](C(=O)N[C@@H](CCC(N)=O)C(=O)N[C@@H](C)C=O)[C@@H]1CCNC(=N)N1)C(=O)O [Elastatinal]
% of hydrolysis rate of the control, in EDTA plasma [1, 3]: 100%
% of hydrolysis rate of the control, in serum [1, 4]: 97%

CC(=O)N[C@@H](CC(C)C)C(=O)N[C@@H](CC(C)C)C(=O)N[C@H](C=O)CCCNC(=N)N [Leupeptin]
minimum concentration present in the sample for effective protection [2]: 50 µM
% of hydrolysis rate of the control, in EDTA plasma [1]: 27
% of hydrolysis rate of the control, in serum [1]: 41

CCN1C(=O)C=CC1=O [N-Ethylmaleimide]
% of hydrolysis rate of the control, in EDTA plasma ([1]; 125I-ACTH 1-39, inhibitor 2 mM, EDTA plasma, 22° C., 25 h): 54%
% of hydrolysis rate of the control, in serum ([1]; 125I-ACTH 1-39, inhibitor 2 mM, serum, 22° C., 18 h): 48%

CC(C)CC(=O)N[C@H](C(=O)N[C@H](C(=O)N[C@@H](CC(C)C)[C@@H](O)CC(=O)N[C@@H](C)C(=O)N[C@@H](CC(C)C)[C@@H](O)CC(=O)O)C(C)C)C(C)C [Pepstatin] (Isovaleryl-VV[Sta]A[Sta]-OH)
% of hydrolysis rate of the control, in EDTA plasma [1, 3]: 79%
% of hydrolysis rate of the control, in serum [1, 4]: 105%

O=S(=O)(F)Cc1ccccc1 [Phenylmethylsulphonyl fluoride]
% of hydrolysis rate of the control, in EDTA plasma [1]: 100
% of hydrolysis rate of the control, in serum [1]: 97

CC(C)C[C@H](NP(=O)(O)O[C@@H]1O[C@@H](C)[C@H](O)[C@@H](O)[C@H]1O)C(=O)N[C@@H](Cc1c[nH]c2ccccc12)C(=O)O [Phosphoramidone]
% of hydrolysis rate of the control, in EDTA plasma [1, 5]: 85%
% of hydrolysis rate of the control, in serum [1, 6]: 98%

O=S(=O)(O)c1cc[c]([Hg][Cl])cc1 [p-Choloromercuryphenylsulphonic acid, p-Choloromercury-phenylsulphonic acid]
% of hydrolysis rate of the control, in EDTA plasma [1]: 62
% of hydrolysis rate of the control, in serum [1]: 94

Antithrombin III
% of hydrolysis rate of the control, in EDTA plasma ([1]; 125I-ACTH 1-39, inhibitor 0.1 unit/ml, EDTA plasma, 22° C., 25 h): 79%
% of hydrolysis rate of the control, in serum ([1]; 125I-ACTH 1-39, inhibitor 0.1 unit/ml, serum, 22° C., 18 h): 107%

Heparin
% of hydrolysis rate of the control, in EDTA plasma ([1]; 125I-ACTH 1-39, inhibitor 5 mg/ml, EDTA plasma, 22° C., 25 h): 103%
% of hydrolysis rate of the control, in serum ([1]; 125I-ACTH 1-39, inhibitor 5 mg/ml, serum, 22° C., 18 h): 126%

B1: Trypsin inhibitor (soybean): soybean trypsin inhibitor (Sigma T-900) (protein, UniProt P01070 25-205, looked up)
Trypsin inhibitor A: DFVLDNEGNPLENGGTYYILSDITAFGGIRAAPTGNERCPLTVVQSRNELDKGIGTIISSPYRIRFIAEGHPLSLKFDSFAVIMLCVGIPTEWSVVEDLPEGPAVKIGENKDAMDGWFRLERVSDDEFNNYKLVFCPQQAEDDKCGDIGISIDHDDGTRRLVVSKNKPLVVQFQKLDKESL
% of hydrolysis rate of the control, in EDTA plasma ([1]; 125I-ACTH 1-39, inhibitor 0.1 mg/ml, EDTA plasma, 22° C., 25 h): 71%
% of hydrolysis rate of the control, in serum ([1]; 125I-ACTH 1-39, inhibitor 0.1 mg/ml, serum, 22° C., 18 h): 78%
